Results from patent US20240416143A1, “PHOTONIC ANTIMICROBIAL WOUND SURFACE DRESSING” (The General Hospital Corporation, priority 2021, published 2024).

How the values were obtained:
Assay in all cases: Photoinactivation of 48-hour in vitro biofilms by adjuvant/antibiotic + antimicrobial blue light
[1] = test system: E. coli biofilm; assay type: cell-based, Escherichia coli; details: 48 h biofilm; aBL 405 nm, 50-250 J/cm^2
Protocol: (§1) The bacterial suspension was grown in a shaking incubator overnight in BHI broth. Cells were collected by centrifugation at 4,000 rpm for 5 minutes and suspended in PBS at a density of 10^6 CFU/mL. Then, the biofilms were grown for 48 hours (unless otherwise specified) in 96-well microtiter plates as described previously [Ref. 27], with a renewal of the media every 24 hours. Following the 48-hour biofilm growth, fresh 200 μL of PBS with or without menadione in different concentrations were added to the wells and the biofilms were incubated in the dark at 25° C. for 1 hour: 0, 0.5, 1, and 2 μg/mL for MRSA USA300, AF0001, IQ0064; 0, 1, 10, 30 and 50 μg/mL for P. aeruginosa PA01; and 0, 100, and 150 μg/mL for E. coli ATCC 25922. After that, the control and the menadione-treated biofilms were maintained without irradiation (“menadione/dark”). Simultaneously, the aBL was delivered to the other biofilm groups testing different power densities (50, 30, 15, and 10 mW/cm^2) while keeping the same radiant exposure of 250 J/cm^2. After the light exposure, the biofilms were carefully washed two times with PBS and 200 μL of PBS was added to each well. Then, the bacterial biofilms in each well were harvested by scratching with a sterile pipette tip and three wells of each group were pooled together in a 1.5 mL microcentrifuge tube. The total volume obtained, 600 μL (3 wells), was sonicated using a Branson 2510 Water Bath Sonicator (Marshall Scientific, LLC) for 5 minutes and the CFU was determined by 10-fold serial dilutions in PBS on BHI agar plates. CFU was counted after overnight incubation at 37° C. Experiments were performed in triplicate.
(§2) A bacterial suspension was grown in a shaking incubator overnight in BHI broth. Cells were collected by centrifugation at 4,000 rpm for 5 minutes and suspended in PBS at a density of 10^6 CFU/mL. Then, the biofilms were grown for 48 hours in 96-well microtiter plates with a renewal of the media every 24 hours. Following the 48-hour biofilm growth, fresh 200 μL of PBS with the tetracyclines minocycline, doxycycline, and demeclocycline in different concentrations were added to the wells and the biofilms were incubated in the dark at 25° C. for 1 hour: 0, 0.25, 0.5, and 1 μg/mL for minocycline; 0, 0.5, 1, and 2 μg/mL for doxycycline; and 0, 0.5, 1, and 2 for demeclocycline. After that, the control and the tetracycline-treated biofilms were maintained without irradiation (“menadione/dark”). […] The total volume obtained, 600 μL (3 wells), was sonicated using a Branson 2510 Water Bath Sonicator (Marshall Scientific, LLC) for 5 minutes and the CFU/mL was determined by 10-fold serial dilutions in PBS on BHI agar plates. CFU was counted after overnight incubation at 37° C.

[2] = test system: P. aeruginosa biofilm; assay type: cell-based, Pseudomonas aeruginosa; details: 48 h biofilm; aBL 405 nm, 50-250 J/cm^2
Protocol: The bacterial suspension was grown in a shaking incubator overnight in BHI broth. Cells were collected by centrifugation at 4,000 rpm for 5 minutes and suspended in PBS at a density of 10^6 CFU/mL. Then, the biofilms were grown for 48 hours (unless otherwise specified) in 96-well microtiter plates as described previously [Ref. 27], with a renewal of the media every 24 hours. Following the 48-hour biofilm growth, fresh 200 μL of PBS with or without menadione in different concentrations were added to the wells and the biofilms were incubated in the dark at 25° C. for 1 hour: 0, 0.5, 1, and 2 μg/mL for MRSA USA300, AF0001, IQ0064; […]; and 0, 100, and 150 μg/mL for E. coli ATCC 25922. After that, the control and the menadione-treated biofilms were maintained without irradiation (“menadione/dark”). Simultaneously, the aBL was delivered to the other biofilm groups testing different power densities (50, 30, 15, and 10 mW/cm^2) while keeping the same radiant exposure of 250 J/cm^2. After the light exposure, the biofilms were carefully washed two times with PBS and 200 μL of PBS was added to each well. Then, the bacterial biofilms in each well were harvested by scratching with a sterile pipette tip and three wells of each group were pooled together in a 1.5 mL microcentrifuge tube. The total volume obtained, 600 μL (3 wells), was sonicated using a Branson 2510 Water Bath Sonicator (Marshall Scientific, LLC) for 5 minutes and the CFU was determined by 10-fold serial dilutions in PBS on BHI agar plates. CFU was counted after overnight incubation at 37° C. Experiments were performed in triplicate.
as §2

[3] = test system: MRSA biofilm; assay type: cell-based, methicillin-resistant Staphylococcus aureus; details: 48 h biofilm; aBL 405 nm, 50-250 J/cm^2
Protocol: as §1
A bacterial suspension was grown in a shaking incubator overnight in BHI broth. Cells were collected by centrifugation at 4,000 rpm for 5 minutes and suspended in PBS at a density of 10^6 CFU/mL. Then, the biofilms were grown for 48 hours in 96-well microtiter plates with a renewal of the media every 24 hours. Following the 48-hour biofilm growth, fresh 200 μL of PBS with the tetracyclines minocycline, doxycycline, and demeclocycline in different concentrations were added to the wells and the biofilms were incubated in the dark at 25° C. for 1 hour: 0, 0.25, 0.5, and 1 μg/mL for minocycline; 0, 0.5, 1, and 2 μg/mL for doxycycline; and 0, 0.5, 1, and 2 for demeclocycline. After that, the control and the tetracycline-treated biofilms were maintained without irradiation (“menadione/dark”). Simultaneously, the aBL (405 nm) was delivered to the other biofilm groups testing different power densities (50, 30 mW/cm^2) while keeping the radiant exposures of 50-250 J/cm^2. After the light exposure, the biofilms were carefully washed two times with PBS and 200 μL of PBS was added to each well. Then, the bacterial biofilms in each well were harvested by scratching with a sterile pipette tip and three wells of each group were pooled together in a 1.5 mL microcentrifuge tube. The total volume obtained, 600 μL (3 wells), was sonicated using a Branson 2510 Water Bath Sonicator (Marshall Scientific, LLC) for 5 minutes and the CFU/mL was determined by 10-fold serial dilutions in PBS on BHI agar plates. CFU was counted after overnight incubation at 37° C.

[4] = test system: MRSA biofilm; assay type: cell-based, methicillin-resistant Staphylococcus aureus; details: 48 h biofilm

Structure (SMILES) | antimicrobial effect of aBL combined with tetracycline [1] | antimicrobial effect of aBL combined with tetracycline [2] | antimicrobial effect of aBL combined with tetracycline [3] | killing in biofilm by vancomycin combined with aBL ([4]; vancomycin 500 μg/mL + aBL 50 mW/cm^2, 250 J/cm^2) [log10 CFU/mL] | effect on biofilms of vancomycin combined with aBL ([4]; vancomycin 1 mg/mL) | improvement of aBL antimicrobial effect by vancomycin ([4]; vancomycin 5, 15 and 50 μg/mL + aBL 250 J/cm^2)
CN(C)[C@@H]1C(O)=C(C(N)=O)C(=O)[C@@]2(O)C(O)=C3C(=O)c4c(O)ccc(Cl)c4[C@@H](O)[C@H]3C[C@@H]12 [demeclocycline] | enhancement in antimicrobial effects | enhancement in antimicrobial effects | enhancement in antimicrobial effects | – | – | –
CN[C@H](CC(C)C)C(=O)N[C@H]1C(=O)N[C@@H](CC(N)=O)C(=O)N[C@H]2C(=O)N[C@H]3C(=O)N[C@H](C(=O)N[C@H](C(=O)O)c4cc(O)cc(O)c4-c4cc3ccc4O)[C@H](O)c3ccc(c(Cl)c3)Oc3cc2cc(c3O[C@@H]2O[C@H](CO)[C@@H](O)[C@H](O)[C@H]2O[C@H]2C[C@](C)(N)[C@H](O)[C@H](C)O2)Oc2ccc(cc2Cl)[C@H]1O [vancomycin] | – | – | – | 2.65 | only minimal effects | did not show any improvement
